Where two headings read alike, the source gives them in different places.

Series [1] has as its system hepatocytes. As to conditions: both the hepatocyte channel and the LSEC/Kupffer-cell channel.
Series [2] has as its system Bile Salt Export Pump (BSEP, ABCB11). Briefly: Bosentan effect on co-transporter gene expression. The class given is cell-based. As to conditions: after three (3) days of culture.
For series [3], the system named is Human hepatocyte conventional plate cell culture. Briefly: Bosentan ALT release, conventional plate cell culture. Particulars: various concentrations of bosentan. Format: cell-based. From the text:
(§1) FIG. 49A-B presents exemplary data showing the release of alanine transaminase (ALT) in response to various concentrations of bosentan. • FIG. 49A: Human hepatocyte microchip culture. • FIG. 49B: Human hepatocyte conventional plate cell culture.
(§2) These microfluidic systems also enable high-resolution, real-time imaging coupled with a capability for in vitro analysis of biochemical, genetic and metabolic activities, all in the functional context of living tissue. This technology can be used to evaluate tissue development, organ physiology and/or disease etiology. In the context of drug discovery, including safety and efficacy, this technology is especially valuable for the study of molecular mechanisms of action, prioritization of lead candidates, toxicity testing and biomarker identification. Bhatia et al., “Microfluidic organs-on-chips” Nature Biotechnology 2014, 32(8):760-772. […] See, FIGS. 54A-B.

For series [4], the system named is human hepatocyte microchips. The series can be described thus: Bosentan ALT release, hepatocyte microchip culture. Particulars: various concentrations of bosentan. The class given is cell-based.
Description: as §1, §2

Series [5] has as its system sodium/bile acid cotransporter. The series can be described thus: Bosentan effect on co-transporter gene expression. The class given is cell-based. As to conditions: after three (3) days of culture.
Description: FIG. 50A-B presents exemplary data showing the effect of bosentan on co-transporter gene expression. • FIG. 50A: Sodium/bile co-transporter. • FIG. 50B: Bile Salt Export Pump (BSEP, ABCB11) co-transporter.
as §2

Series [6] has as its system 2D models. Particulars: i.e., ~0.4%; cited from earlier work.
The subject of series [7] is tri-culture of hepatocytes and Kupffer cells. As to conditions: for cholesterol release: ethanol 0.04-0.16% BAC.
Series [8] has as its system Liver-Chip hepatocytes. The series can be described thus: Ethanol / LPS dosing Liver-Chip study (FIG. 81-83).
Description: Oxidative stress was measured by staining of ROS-positive hepatocytes with MitoSOX™ Red (a fluorogenic dye specifically targeted to mitochondria in live cells. Oxidation of MitoSOX™ Red reagent produces red fluorescence.
Oxidation (red) is shown in the lower row stained with MitoSOX™ Red.
Series [9] concerns co-culture hepatocyte microchip. The series can be described thus: Fructose-induced liver injury on co-culture hepatocyte microchip. Format: cell-based. The procedure: The cell culture media effluent was analyzed for triglycerides, glycogen and glucose from both the top and bottom channels of the microchannel. See, Example 1. Cell imaging analysis of lipid droplet accumulation was performed with AdipoRed® and visualized with brightfield imaging.
The hepatocyte cells and endothelial cells were seeded and incubated as a co-culture in a hepatocyte microchip and samples were collected a specific time points. See, FIG. 32.
The specific media compositions were as follows: • Liver culture media: • Top Channel: DMEM (LG) 0% FBS, NEAA 1:200, ITSG 1:10,000, Vitamin C & dexamethasone
To each media, either a 1:1 glucose:fructose ratio (low fructose) or a 0.7:1.4 glucose:fructose ratio (high fructose) is added.

Series [10] has as its system co-culture of hepatocytes and liver sinusoidal endothelial cells (LSECs). Briefly: In vitro NAFLD model, high fat diet on co-culture hepatocyte microchip. Format: cell-based. The procedure:
For example, a co-culture of hepatocytes and liver sinusoidal endothelial cells (LSECs) cultured on a hepatocyte microchip were exposed to a high fat diet comprising of oleic acid ([…]) for up to two days. Accumulating fat droplets within these cultured hepatocytes were identified with AdipoRed® or NileRed® staining. […] See, FIG. 15. […] See, FIGS. 16A-C. Additionally, the number of lipid droplets were quantitated as well as the accompanying glucose level was determined. […] See, FIG. 18A. […] See, FIG. 18B. Photomicrographs of LSEC mitochondrial function correlate in a positive manner with twenty-four (24) hours of a high fat cell diet. See, FIG. 18C. Photomicrographs of hepatocyte mitochondrial function correlate in a positive manner after twenty-four (24) hours of a high fat cell diet. See, FIG. 18D. […] See, FIG. 19. […] The high fat diet exposure between 24-48 hours was also performed with and without the insulin-secretion agonist, Exendin. See, FIG. 60A. […] See, FIGS. 60B, 62C, 17A-B.

The test system of series [11] is hepatocyte microchip co-culture system (e.g., Liver-Chip). Briefly: Fatty acid-induced steatosis in WEN/CSC media (Example IV). Format: cell-based. The procedure:
This example was performed on a hepatocyte microchip co-culture system (e.g., Liver-Chip). As a control condition, normal cell culture media “diet” (WEN media) was flowed through the top channel of the microchip, while a CSC 10% SFB was flowed through the bottom channel of the microchip. […] The following measurements were taken: i) Lipid drop staining with Nile Red®; ii) cholesterol quantification; iii) free fatty acid quantification; and iv) glucose quantification.

Series [12] deals with tri-culture of hepatocytes, liver sinusoidal endothelial cells (LSECs) and Kupffer cells. Briefly: In vitro NASH model, high fat diet and LPS on tri-culture hepatocyte microchip. Format: cell-based. As to the method: For example, a tri-culture of hepatocytes, liver sinusoidal endothelial cells (LSECs) and Kupffer cells were cultured on a hepatocyte microchip and exposed to a high fat diet comprising oleic acid. Subsequently, LPS (1 μg/ml ) was added to the high fat diet media to induce a Kupffer cell-mediated inflammatory response. […] See, FIG. 20B. When oleic acid exposure is supplemented with LPS the observance of stained lipid droplets decreases. See, FIG. 20C. […] See, FIG. 20D. […] See, FIG. 21A. […] See, FIG. 22A cf FIG. 22B. […] See, FIG. 23.

Series [13] deals with hepatic stellate cells. Briefly: Fibrosis development in the Liver-Chip. The class given is cell-based. Particulars: FIG. 46B.
For series [14], the system named is quadruple co-culture of hepatocytes, Kupffer cells, LSEC cells and Stellate cells. The series can be described thus: Quadruple co-culture cell activation. Format: cell-based. Particulars: FIG. 13B.
Where [15] appears, read: liver culture media, 48 hours, low or high fructose.
Where [16] appears, read: oleic acid (0.1 to 0.5 μM) for up to two days.

Turning to `Nc1c2c(nc3ccccc13)CCCC2` [Tacrine, tacrine], in series [1], the IL-1-α result is listed as “accumulation”, the IL-1beta entry is given as “accumulation” and the IL-6 result is “accumulation”.
Consider `COc1ccccc1Oc1c(NS(=O)(=O)c2ccc(C(C)(C)C)cc2)nc(-c2ncccn2)nc1OCCO` [bosentan], for which the “BSEP transporter expression levels” value in series [2] was “reduce sodium/bile acid cotransporter and BSEP transporter expression levels in a dose-dependent fashion”. The entries for the “secreted alanine transaminase (ALT) levels” value in series [3] and in series [4] were “lack of response” and “dose dependent increment”, respectively. Moreover, the “sodium/bile acid cotransporter expression levels” value in series [5] was “reduce sodium/bile acid cotransporter and BSEP transporter expression levels in a dose-dependent fashion”.
Turning to `CCO` [ethanol], the “ethanol concentration significantly decreasing viability” value in series [6] is reported as “greater than 100 mM”. In series [7] (0.16% ethanol, 120 hours of recovery (Day 7)), the lipid droplet accumulation result is on record as “statistically significant as compared to vehicle control”. The cholesterol levels entry in [7] (after 48 h of recovery) is on record as “back to normal”. In [7] (24 h), the cholesterol release result was “increased”. Moreover, the cholesterol release entry in [7] (48 h) is listed as “intensified”. Moreover, the “ethanol concentration at which modifications in glucose release levels were observed” value in [8] was “above 0.32%”. Moreover, in [8] (after ethanol-free recovery), the alcohol-induced steatosis entry was “reverted”. For the same molecule, the “cholesterol release (effluent)” value in series [8] (ethanol at physiologically relevant BAC) was “increase of cholesterol release”. Also, in series [8] (ethanol dosing), the cholesterol storage result is “increased cholesterol and glycogen storage”; the glycogen storage result is “increased cholesterol and glycogen storage”. Besides, in [8] (ethanol dosing condition), the “hepatocyte viability (albumin as viability marker)” value is “sublethal”.
Regarding `O=C(CO)[C@@H](O)[C@H](O)[C@H](O)CO` [fructose], the extracellular glycogen levels entry is reported as “No significant differences” in [9] (24 or 72 hours) and “dose-dependent decrease” in [9] (low or high fructose, liver media or intestinal effluent media, 48 hours). Moreover, the triglyceride levels entry is listed as “No significant differences” in series [9] (24 or 72 hours, or intestinal effluent media) and “dose-dependent increase” in series [9] (low or high fructose, liver media, 48 hours). Further, the “glucose in microchannel effluent” value in series [9] (48 h, fructose media) is “observed to increase”; in [9] (intestinal effluent culture media, with or without fructose) it was “no difference observed”. The hepatocyte cell number result in [9] (setting [15]) is “decreased hepatocyte cell number”. For the same molecule, the hepatocyte cell size result in series [9] (setting [15]) is “increased hepatocyte cell size”. In addition, the hepatocyte viability entry in series [9] (setting [15]) was “no effect on hepatocyte viability”. Besides, in series [9] (liver media or intestinal effluent media, 24, 48 or 72 hours), the cholesterol levels result is “failed to significantly increase cholesterol levels”.
For `CCCCCCCC/C=C\CCCCCCCC(=O)O` [oleic acid], in series [10] (high fat diet), the cholesterol concentration result is listed as “observed to increase”, the “free fatty acids concentration” value is “observed to increase” and the “number of nuclei (hepatocyte proliferation or polyploidy)” value is given as “increase in the number of nuclei”. In addition, in [10] (setting [16]), the “LSEC morphology by bright field imaging” value is given as “developed an injury morphology” and the “lipid droplets accumulation inside co-cultured hepatocytes” value was “significant increase of lipid droplets accumulation”. Besides, the extracellular glucose concentration entry in series [10] (oleic acid (0.1 to 0.5 μM), 48 hours) is reported as “significantly higher”. In addition, in series [10] (two day high fat diet), the “cell viability (mitochondrial function)” value is “did not result in any significant reduction in cell viability” and the “oxidative stress markers, reactive oxygen species (ROS)” value is reported as “increase in reactive oxygen species”. Besides, the LSEC morphology result in series [11] (1 μM Oleic acid) is recorded as “alterations in morphology”. The “hepatocyte lipid droplet accumulation over time” value in series [11] (1 μM Oleic acid, 0, 40 and 64 hours) is “progressive accumulation”. Further, the “hepatocyte free fatty acids” value in [11] (1 μM Oleic acid, forty hours) is “shown to increase”. Moreover, the “lipid droplets in hepatocytes” value in [11] (high oleic acid concentration media, FIG. 7A) was “Increased concentration of lipid droplets”. For the same molecule, the LSEC morphological features entry in [11] (oleic acid, 5 μM, 2 day exposure, FIG. 7B) is reported as “Morphological features indicative of injury/stress exposure”. Besides, the “lipid droplet accumulation, cells proximal to channel inlet compared to channel outlet” value in [12] (48 hours of high fat diet of oleic acid) was “higher density of lipid droplet accumulation”. Further, in series [12] (oleic acid only vs control), the “observable fat droplets in the hepatocytes” value is given as “significant increase in observable fat droplets”.
In the case of “TGF-α: factor printed as activating hepatic stellate cells in FIG. 46B”, the “hepatic stellate cell activation” value in series [13] was “activation of hepatic stellate cells”.
As for “TGF-β: growth factor used for stellate cell activation”, the “stellate cell activation (α-SMA staining)” value in series [14] is given as “Stellate cell activation”.

The values above are taken from US20200378956A1, “HUMAN MICROPHYSIOLOGICAL CELL SYSTEM FOR LIVER DISEASE CONVERSTION PROV 1-18585 AND PROV 2-19154” (EMULATE, INC., priority 2018, published 2020).
